Test results: ChEMBL document CHEMBL1121716, “Potential organ- or tumor-imaging agents. 21. Acyl-labeled esters of cholesterol” (J Med Chem, 1981)
Blank lines part the entries; values can stand above or below the compound they belong to.

Assays:
Settings in all cases: in vivo
[1] = system: Rattus norvegicus; test: Accumulation in adrenal cortex was evaluated by distribution of radioactivity at 0.5 hr after intravenous administration of 4-14C radiolabeled Cholesteryl Oleate to Rats; assay type: ADME, organism-based
[2] = system: Rattus norvegicus; test: Accumulation in adrenal cortex was evaluated by distribution of radioactivity at 0.5 h after intravenous administration of oleate 1-14C radiolabeled Cholesteryl Oleate to Rats; assay type: ADME, organism-based
[3] = system: Rattus norvegicus; test: Accumulation in blood was evaluated by distribution of radioactivity at 0.5 hr after intravenous administration of 4-14C radiolabeled Cholesteryl Oleate to Rats; assay type: ADME, organism-based
[4] = system: Rattus norvegicus; test: Accumulation in blood was evaluated by distribution of radioactivity at 0.5 hr after intravenous administration of oleate 1-14C radiolabeled Cholesteryl Oleate to Rats; assay type: ADME, organism-based
[5] = system: Rattus norvegicus; test: Accumulation in liver was evaluated by distribution of radioactivity at 0.5 hr after intravenous administration of 4-14C radiolabeled Cholesteryl Oleate to Rats; assay type: ADME, organism-based
[6] = system: Rattus norvegicus; test: Accumulation in liver was evaluated by distribution of radioactivity at 0.5 hr after intravenous administration of oleate 1-14C radiolabeled Cholesteryl Oleate to Rats; assay type: ADME, organism-based
[7] = system: Rattus norvegicus; test: Accumulation in thyroid was evaluated by distribution of radioactivity at 0.5 hr after intravenous administration of 4-14C radiolabeled Cholesteryl Oleate to Rats; assay type: ADME, organism-based, Thyroid gland
[8] = system: Rattus norvegicus; test: Accumulation in thyroid was evaluated by distribution of radioactivity at 0.5 hr after intravenous administration of oleate 1-14C radiolabeled Cholesteryl Oleate to Rats; assay type: ADME, organism-based, Thyroid gland
[9] = system: Rattus norvegicus; test: Accumulation in ovary was evaluated by distribution of radioactivity at 0.5 hr after intravenous administration of 4-14C radiolabeled Cholesteryl Oleate to Rats; assay type: ADME, organism-based, Female gonad
[10] = system: Rattus norvegicus; test: Accumulation in ovary was evaluated by distribution of radioactivity at 0.5 hr after intravenous administration of oleate 1-14C radiolabeled Cholesteryl Oleate to Rats; assay type: ADME, organism-based, Female gonad
[11] = system: Rattus norvegicus; test: Accumulation in adrenal cortex was evaluated by distribution of radioactivity at 0.5 hr after intravenous administration of radioiodinated cholesteryl 2,3,5-tri[125I]iodobenzoate to Rats; assay type: ADME, organism-based
[12] = system: Rattus norvegicus; test: Accumulation in adrenal cortex was evaluated by distribution of radioactivity at 24 hr after intravenous administration of radioiodinated cholesteryl 2,3,5-tri[125I]iodobenzoate to Rats; assay type: ADME, organism-based
[13] = system: Rattus norvegicus; test: Accumulation in blood was evaluated by distribution of radioactivity at 0.5 hr after intravenous administration of radioiodinated cholesteryl 2,3,5-tri[125I]iodobenzoate to Rats; assay type: ADME, organism-based
[14] = system: Rattus norvegicus; test: Accumulation in blood was evaluated by distribution of radioactivity at 24 hr after intravenous administration of radioiodinated cholesteryl 2,3,5-tri[125I]iodobenzoate to Rats; assay type: ADME, organism-based
[15] = system: Rattus norvegicus; test: Accumulation in liver was evaluated by distribution of radioactivity at 0.5 hr after intravenous administration of radioiodinated cholesteryl 2,3,5-tri[125I]iodobenzoate to Rats; assay type: ADME, organism-based
[16] = system: Rattus norvegicus; test: Accumulation in liver was evaluated by distribution of radioactivity at 24 hr after intravenous administration of radioiodinated cholesteryl 2,3,5-tri[125I]iodobenzoate to Rats; assay type: ADME, organism-based
[17] = system: Rattus norvegicus; test: Accumulation in lung was evaluated by distribution of radioactivity at 0.5 hr after intravenous administration of radioiodinated cholesteryl 2,3,5-tri[125I]iodobenzoate to Rats; assay type: ADME, organism-based
[18] = system: Rattus norvegicus; test: Accumulation in lung was evaluated by distribution of radioactivity at 24 hr after intravenous administration of radioiodinated cholesteryl 2,3,5-tri[125I]iodobenzoate to Rats; assay type: ADME, organism-based
[19] = system: Rattus norvegicus; test: Accumulation in spleen was evaluated by distribution of radioactivity at 24 h after intravenous administration of radioiodinated cholesteryl 2,3,5-tri[125I]iodobenzoate to Rats; assay type: ADME, organism-based
[20] = system: Rattus norvegicus; test: Accumulation in thyroid was evaluated by distribution of radioactivity at 0.5 hr after intravenous administration of radioiodinated cholesteryl 2,3,5-tri[125I]iodobenzoate to Rats; assay type: ADME, organism-based, Thyroid gland
[21] = system: Rattus norvegicus; test: Accumulation in thyroid was evaluated by distribution of radioactivity at 24 hr after intravenous administration of radioiodinated cholesteryl 2,3,5-tri[125I]iodobenzoate to Rats; assay type: ADME, organism-based, Thyroid gland
[22] = system: Rattus norvegicus; test: Accumulation in ovary was evaluated by distribution of radioactivity at 0.5 hr after intravenous administration of radioiodinated cholesteryl 2,3,5-tri[125I]iodobenzoate to Rats; assay type: ADME, organism-based, Female gonad
[23] = system: Rattus norvegicus; test: Accumulation in ovary was evaluated by distribution of radioactivity at 24 hr after intravenous administration of radioiodinated cholesteryl 2,3,5-tri[125I]iodobenzoate to Rats; assay type: ADME, organism-based, Female gonad
[24] = system: Rattus norvegicus; test: Accumulation in spleen was evaluated by distribution of radioactivity at 0.5 hr after intravenous administration of radioiodinated cholesteryl 2,3,5-tri[125I]iodobenzoate to Rats; assay type: ADME, organism-based

SMILES: CCCCCCCC/C=C\CCCCCCCC(=O)OC1CCC2(C)C(=CCC3C2CCC2(C)C(C(C)CCCC(C)C)CCC32)C1 (centres undefined)
Dose/g of tissue [1]: 3.85%
Dose/g of tissue [2]: 2.448%
Dose/g of tissue [3]: 5.78%
Dose/g of tissue [4]: 5.196%
Dose/g of tissue [5]: 1.569%
Dose/g of tissue [6]: 1.236%
Dose/g of tissue [7]: 0.446%
Dose/g of tissue [8]: 0.344%
Dose/g of tissue [9]: 2.815%
Dose/g of tissue [10]: 2.088%

Dose/g of tissue [11]: 5.455%
Dose/g of tissue [12]: 9.032%
Dose/g of tissue [13]: 5.46%
Dose/g of tissue [14]: 0.568%
Dose/g of tissue [15]: 2.726%
Dose/g of tissue [16]: 5.106%
Dose/g of tissue [17]: 1.49%
Dose/g of tissue [18]: 0.703%
Dose/g of tissue [19]: 1.68%
Dose/g of tissue [20]: 0.47%
Dose/g of tissue [21]: 2.63%
Dose/g of tissue [22]: 6.148%
Dose/g of tissue [23]: 16.19%
Dose/g of tissue [24]: 0.57%
SMILES: CC(C)CCCC(C)C1CCC2C3CC=C4CC(OC(=O)c5cc(I)cc(I)c5I)CCC4(C)C3CCC12C (centres undefined)
